From patent US4749683A, “Inhibition of gastric acid secretion with alpha-transforming growth factor” (President and Fellows of Harvard College, priority 1986, dated 1988)
Where “and” joins values, the source holds several entries; their conditions need not be identical. Identical values can stand only once.

System: guinea pig gastric mucosa
Assay: Histamine-induced gastric acid secretion of isolated guinea pig gastric mucosa in Ussing chambers, pH stat method
Type: cell-based, guinea pigs
Details: for Ratio of pre- and post histamine treatment acid secretion (mean SEM): relative to 30 minute period prior to histamine
Experimental: Unfasted female guinea pigs (205-330 g) were killed by cervical dislocation and the stomachs were removed. The antrum was discarded and the stomach was rinsed clean with several washes of mammalian Ringer's solution at 37° C. The stomach was hemisected along the greater and lesser curvatures and the mucosa was separated from the seromuscularis with a pair of fine forceps. Mucosae from both sides were stretched and separately mounted in Lucite Ussing chambers (diameter 1.6 cm) and the assembled chambers were connected to water jacketted gas-lift incubators. The nutrient (submucosal) surface was bathed in 15 ml of a solution containing: 122 mM NaCl, 25.0 mM NaHCO3, 5.0 mM KCl, […] MgSO4, 2.0 mM CaCl2, 1.0 mM KH2 PO4, 20.0 mM glucose, and 100 ug/ml gentamycin sulphate (Garamycin). The solution was gassed with 95% O2 -5% CO2 bubbled through distilled water which maintained pH at 7.45-7.55. The luminal (mucosal) surface was bathed in 15 ml unbuffered saline (150 mM NaCl) which was gassed with 100% O2 passed through 500 mM NaOH to remove CO2. Gastric acid secretion was measured by the pH stat method. pH was held at 4.5 with a pH stat coupled to an autoburette and acid secretion was determined by the amount of NaOH necessary to maintain pH in the luminal solution. All solutions were maintained at 37° C. with a heated water circulator. Tissues were initially allowed to stabilize in the chambers a minimum of 2 hours. Saline with or without alpha TGF (60 ng/ml final concentration) was then added to the nutrient bath and the basal rate of acid secretion was monitored for 30 minutes. Twenty-one paired sets of tissue specimens from the same animal were employed, one receiving alpha-TGF, the other serving as control. All tissues were then treated with histamine (10^-4 M) and acid secretion was measured for an additional 3 hours. When calculated in terms of absolute levels of acid secretion, differences between control and TGF-treated tissues were significant (p<0.05) at 120, 150, and 180 minutes.

alpha-transforming growth factor [TGF]
Ratio of pre- and post histamine treatment acid secretion (mean SEM) (0 min., alpha TGF 60 ng/ml): 1.00 ± 0.00
Gastric acid secretion (mean ± SEM) (0 time, basal rate before histamine, alpha TGF 60 ng/ml in nutrient bath, n=21): 1.80 ± 0.21 uEq./cm^2 /hr
Gastric acid secretion (mean ± SEM) (30 min. after histamine 10^-4 M, alpha TGF 60 ng/ml): 2.09 ± 0.24 uEq./cm^2 /hr
Ratio of pre- and post histamine treatment acid secretion (mean SEM) (30 min., alpha TGF 60 ng/ml): 1.17 ± 0.04
Effect on the basal rate of acid secretion (30 minutes before histamine, alpha TGF 60 ng/ml): no effect
Ratio of pre- and post histamine treatment acid secretion (mean SEM) (60 min. (one hour), alpha TGF 60 ng/ml): 1.48 ± 0.11 and 1.49±0.11
Gastric acid secretion (mean ± SEM) (60 min. after histamine 10^-4 M, alpha TGF 60 ng/ml): 2.62 ± 0.35 uEq./cm^2 /hr
Gastric acid secretion (mean ± SEM) (90 min. after histamine 10^-4 M, alpha TGF 60 ng/ml): 2.97 ± 0.38 uEq./cm^2 /hr
Ratio of pre- and post histamine treatment acid secretion (mean SEM) (90 min., alpha TGF 60 ng/ml): 1.67 ± 0.12
Ratio of pre- and post histamine treatment acid secretion (mean SEM) (120 min. (two hours), alpha TGF 60 ng/ml): 1.68 ± 0.11
Gastric acid secretion (mean ± SEM) (120 min. after histamine 10^-4 M, alpha TGF 60 ng/ml): 2.97 ± 0.35 uEq./cm^2 /hr
Gastric acid secretion (mean ± SEM) (150 min. after histamine 10^-4 M, alpha TGF 60 ng/ml): 3.04 ± 0.37 uEq./cm^2 /hr
Ratio of pre- and post histamine treatment acid secretion (mean SEM) (150 min., alpha TGF 60 ng/ml): 1.73 ± 0.12
Ratio of pre- and post histamine treatment acid secretion (mean SEM) (180 min. (three hours), alpha TGF 60 ng/ml): 1.81 ± 0.27
Gastric acid secretion (mean ± SEM) (180 min. after histamine 10^-4 M, alpha TGF 60 ng/ml): 3.16 ± 0.68 uEq./cm^2 /hr
